Source: a compilation of properties of binary mixtures (doi:10.1021/acs.jpcb.9b10454)

Test: xn = mol fraction of the nth substance listed
Conditions: 303.15 K, 100 kPa

CCn1cc[nH+]c1.O=S(=O)([N-]S(=O)(=O)C(F)(F)F)C(F)(F)F + c1c[nH]cn1
Conditions	electrical conductivity [S/m]	viscosity [mPa·s]
x1 = 0.194	0.891	–
x1 = 0.252	–	20.7
x1 = 0.333	–	23
x1 = 0.385	0.616	–
x1 = 0.501	–	25.3
x1 = 0.597	0.587	–
x1 = 0.601	–	25.6
x1 = 0.671	–	27.7
x1 = 0.79	0.556	–
x1 = 0.802	–	24.3
x1 = 0.889	0.512	–
x1 = 0.901	–	26.7
x1 = 1	–	38.8
